Source: US8106075B2, “Insecticides” (Syngenta Crop Protection, Inc., priority 2004, dated 2012)

Legend:
Diabrotica balteata = test: Example B2: activity against Diabrotica balteata, sprayed maize seedlings; details: in Zea mays, 144 h, read-out: percentage reduction in the population (% activity)
Spodoptera littoralis = test: B10a: Systemic Insecticide Test for Spodoptera littoralis (cotton leafworm); format: in vivo; details: systemic via maize seedlings, 1st instar larvae
Experimental: […] Seedlings are allowed to grow for six days. Subsequently leaves are cut and placed in a Petri dish (5 cm diameter), inoculated with twelve to fifteen 1st instar S. littoralis larvae and incubated for four days in a growth chamber (25° C., 50% r.h., 18:6 L:D photo period). Number of alive insects are counted and percentage of dead calculated. Tests were conducted with one replicate.

Heliothis virescens = test: B10b: Insecticide Test for Heliothis virescens (tobacco budworm); format: in vivo; details: for Percent larvae showing growth reduction (compared to control): eggs on artificial diet topically treated, one week; for mortality at 0.05 ppm / mortality at 0.2 ppm / mortality at 0.8 ppm / mortality at 3 ppm: Heliothis virescens, topical, 168 h, read-out: Percent larvae mortality
Experimental: 50-60 newly laid H. virescens eggs were placed on artificial diet in Petri dishes (5 cm diameter) and topically treated with 0.8 ml solution of compounds at the following rates: 3, 0.8, 0.2, 0.05. Petri dishes are maintained at 26±2° C., 50±10% r.h. in a dark room and assessment conducted one week after application (two replicates/treatment). Larvae mortality and effects on larvae growth were compared to the control.

Plutella xylostella = test: B10c: Insecticide Test for Plutella xylostella (diamond back moth); format: in vivo; details: sprayed Chinese cabbage leaf disks, L3 larvae
Experimental: Chinese cabbage plants were sprayed with insecticide at 3, 0.8, 0.2 and 0.05 ppm. Five cm diameter leaf disks were cut and placed in a Petri dish containing 6 ml agar (0.8%). Five P. xylostella larvae L3 were introduced into Petri dishes and kept at 26±2° C., 50±10% r.h. in a dark room (two replicates per treatment). […]

Row | SMILES | inhibition at 400 ppm (Diabrotica balteata) [%] | Death rate (%) after 4 days (Spodoptera littoralis; 0.2 ppm) [%] | Death rate (%) after 4 days (Spodoptera littoralis; 0.8 ppm) [%] | Death rate (%) after 4 days (Spodoptera littoralis; 3 ppm) [%] | Percent larvae showing growth reduction (compared to control) (Heliothis virescens; 0.05 ppm) [%] | Percent larvae showing growth reduction (compared to control) (Heliothis virescens; 0.2 ppm) [%] | Percent larvae showing growth reduction (compared to control) (Heliothis virescens; 0.8 ppm) [%] | Percent larvae showing growth reduction (compared to control) (Heliothis virescens; 3 ppm) [%] | mortality at 0.05 ppm (Heliothis virescens) [%] | mortality at 0.2 ppm (Heliothis virescens) [%] | mortality at 0.8 ppm (Heliothis virescens) [%] | mortality at 3 ppm (Heliothis virescens) [%] | Death rate (%) (Plutella xylostella; 0.05 ppm) | Death rate (%) (Plutella xylostella; 0.2 ppm) | Death rate (%) (Plutella xylostella; 0.8 ppm) | Death rate (%) (Plutella xylostella; 3 ppm)
1 | Cc1cc(Cl)cc(C(=O)NCC2CCO2)c1NC(=O)c1cc(C(F)(F)F)nn1-c1ncccc1Cl (stereo not shown) [Compound P25, N-(4-chloro-2-methyl-6-[([oxetan-2-ylmethyl]amino)carbonyl]phenyl)-1-(3-chloro-2-pyridinyl)-3-(trifluoromethyl)-1H-pyrazole-5-carboxamide] | > 80 | – | – | – | – | – | – | – | – | – | – | – | – | – | – | –
2 | Cc1cccc(C(=O)NCC2CO2)c1NC(=O)c1cc(C(F)(F)F)nn1-c1ncccc1Cl (stereo not shown) [Comp. 566, reference compound] | – | 0 | 0 | 0 | 0 | 0 | 0 | 0 | 0 | 0 | 0 | 0 | 0 | 10 | 5 | 25
3 | Cc1cccc(C(=O)NCC2CC2)c1NC(=O)c1cc(C(F)(F)F)nn1-c1ncccc1Cl [Compound P41] | – | 20 | 80 | 100 | 0 | 45 | 100 | 100 | 0 | 0 | 0 | 0 | 0 | 0 | 80 | 60
